Experimental data taken from patent publication US20210330611A1, “THERAPY FOR NEUROLOGICAL DISEASES/DISORDERS” (priority 2020, published 2021).
“And” between values parts separate entries of the source, which are not always exact repeats. Equal values may be shown once. Where a name gives a salt, the structure may show the parent alone. Read-outs that look alike come from different tables or passages of the source.

Legend:
[1] = system: fibrin- and LPS-induced microglia activation; test: cells; assay type: cell-based, rat; settings: for inhibition at 10 µM: Rattus norvegicus, Microglia
primary rat microglia [2] = system: primary rat microglia;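 on Fibrin % cell toxicity: share of dead cells sized under 150 µm2 at 10 µM in fibrin-stimulated microglia HTS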
primary rat microglia [3] = system: primary rat microglia; remark: listed apart in the source;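 on Fibrin % cell toxicity: share of dead cells sized under 150 µm2 at 10 µM in fibrin-stimulated microglia HTS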
[4] = system: fibrin-induced microglia activation; test: Image-based assay of fibrin-induced microglia activation (HTS and dose response); assay type: cell-based, rat; settings: primary HTS, 10 μM, fibrin-stimulated primary microglia
[5] = system: LPS-induced microglia activation; test: Image-based assay of LPS-induced microglia activation (HTS and dose response); assay type: cell-based, rat; settings: Rattus norvegicus, Microglia, 48 h, read-out: LPS % inhibition
[6] = quadrant by fibrin and LPS inhibition in HTS of 1907 compounds

Row | Molecule | LPS % cell toxicity (primary rat microglia [2]; rat) [%] | Fibrin % cell toxicity (primary rat microglia [3]; rat) [%] | Quadrant (FIG. 5b) [1] | also measured
1 | C[C@@H]1O[C@@H](O[C@H]2C[C@@H](O)[C@]3(CO)[C@H]4[C@H](O)C[C@]5(C)[C@@H](C6=CC(=O)OC6)CC[C@]5(O)[C@@H]4CC[C@]3(O)C2)[C@H](O)[C@H](O)[C@H]1O [Ouabain] | 0 | 0 | – | Quadrant (FIG. 5b) [1, 6]: Q4
2 | C[C@@H]1C[C@H]2[C@@H]3CCC4=CC(=O)C=C[C@]4(C)[C@@]3(F)[C@@H](O)C[C@]2(C)[C@@]1(O)C(=O)COP(=O)(O)O [Dexamethasone sodium phosphate, reference compound] | 3 | 2 | Q2 | inhibition at 10 µM ([1]; read-out: Cherry-picked Hit (Suppl. Table 7)): > 50%; inhibition at 10 µM ([1]; read-out: Hit): > 50%
3 | CCOc1cc(NC(C)=O)ccc1C(=O)OC [Ethopabate] | 0 | 0 | Q4 | –
4 | CN1C2CCCC1CC(NC(=O)c1nn(C)c3ccccc13)C2 (stereo not shown) [Granisetron] | 0 | 1 | – | Quadrant (FIG. 5b) [1, 6]: Q4
5 | CC(C)Cn1cnc2c(N)nc3ccccc3c21 [Imiquimod] | 0 | 0 | Q4 | –
6 | CN[C@H]1CC[C@@H](c2ccc(Cl)c(Cl)c2)c2ccccc21 [Sertraline] | 0 | 1 | Q4 | –
7 | CN(C)CCN(Cc1cccs1)c1ccccn1 [Methapyrilene] | 0 | 1 | Q4 | –
8 | CC(C)OC(=O)C(C)(C)Oc1ccc(C(=O)c2ccc(Cl)cc2)cc1 [Fenofibrate] | 0 | 1 | – | Quadrant (FIG. 5b) ([1]; classification by fibrin and LPS inhibition, HTS at 10 μM): Q4
9 | Cc1ccccc1C(OCCN(C)C)c1ccccc1 (stereo not shown) [Orphenadrine] | 0 | 0 | Q4 | –
10 | Cinnarazine | – | – | Q4 | LPS % cell toxicity (primary rat microglia [2]): 0%; Fibrin % cell toxicity (primary rat microglia [3]): 1%
11 | Clc1ccc(CO/N=C(\Cn2ccnc2)c2ccc(Cl)cc2Cl)c(Cl)c1 [Oxiconazole] | 1 | 1 | Q4 | –
12 | C=C1CC[C@H](O)C/C1=C/C=C1\CCC[C@]2(C)[C@@H]([C@H](C)CCCC(C)C)CC[C@@H]12 [Cholecalciferol] | 0 | 1 | – | Fibrin % inhibition [4]: −10% and −17%; Quadrant (FIG. 5b) ([1]; primary HTS, 10 μM): Q4
13 | C(=C\c1ccccc1)/CN1CCN(C(c2ccccc2)c2ccccc2)CC1 [Cinnarizine] | 0 | 1 | Q4 | –
14 | CCCCCCCCCCCCCCCC[n+]1ccccc1 [Cetylpyridinium Bromide] | 39 | 25 | Q2 | –
15 | CN1C2CCCC1CC(NC(=O)c1nn(C)c3ccccc13)C2 (stereo not shown) [Granisetron Hydrochloride] | 0 | 0 | – | Quadrant (FIG. 5b) [1, 6]: Q4
16 | N[C@@H](Cc1cc(I)c(Oc2ccc(O)c(I)c2)c(I)c1)C(=O)O [Liothyronine] | 1 | 1 | Q4 | inhibition at 10 µM [5]: 21%
17 | O=C(CCCCCCC(=O)Nc1ccccc1)NO [Vorinostat] | 50 | 89 | – | Quadrant (FIG. 5b) ([1]; quadrant by fibrin and LPS inhibition, HTS at 10 μM): Q2
18 | CCN(CC)CCOC(=O)C1(C2CCCCC2)CCCCC1 [Dicyclomine] | 0 | 0 | Q4 | –
19 | O=c1[nH]c(=O)n([C@H]2C[C@H](O)[C@@H](CO)O2)cc1F [Floxuridine] | 0 | 1 | – | Quadrant (FIG. 5b) [1, 6]: Q4
20 | CC1(C)NC(=O)N(c2ccc([N+](=O)[O-])c(C(F)(F)F)c2)C1=O [Nilutamide] | 0 | 1 | – | Quadrant (FIG. 5b) [1, 6]: Q4
